Results on five compounds are retold here after patent publication US8980223B2, “Methods of preventing ischemic injury using peripheral nociceptive stimulation” (University of Cincinnati, priority 2009, dated 2015).

For assay [1], the system named is peripheral C-fiber nociceptors. Put plainly: Lidocaine before remote electrical stimulation and ischemia/reperfusion, infarct size. The note with it: 2% lidocaine, 10 μl s.c., prior to electrical stimulation and ischemia; compared with vehicle ES. It counts as in vivo, mice. The procedure:
(§1) A previously described mouse model of ischemia and reperfusion (I/R) injury in vivo was used (Ren et al. (2004) J. Surg Res. 121(1):120-129; Fan et al (2005)Circulation 111(14):1792-1799; Zhou et al (2007)Cardiovascular Research 75(3) 487-497; and Diwan et a/(2007) J. Clinical Investigation 117(10):2825-2833, herein incorporated by reference in their entirety). Mice were anesthetized with sodium pentobarbital (90 mg/kg ip), intubated with PE 90 tubing and ventilated using a mouse miniventilator (Harvard Apparatus, Holliston, Mass.). All mice were continuously monitored by electrocardiography (ECG) (DigiMed Sinus Rhythm Analyzer, Micro-Med Inc), and mice without evidence of ischemia and timely reperfusion were excluded from the studies. […]
(§2) Mice were euthanized either 4 or 24 hours after reperfusion and infarct size determination and imaging were performed by previously described methods (Ren et al. (2004) J. Surg Res. 121(1):120-129 and Guo et al (1998) Am J. Physiology 275(4 Pt 2):H1375-1387, herein incorporated by reference in their entirety). […] Infarct size was determined by the method of Fishbein et al (1981) Am Heart J 101(5):593-600, herein incorporated by reference in its entirety. […]

The test system of another assay is protein kinase C(PKC). Kind of assay: Chelerythrine before electrical stimulation and ischemia/reperfusion, infarct size. In kind it is in vivo, mice. To be noted: chelerythrine plus electrical stimulation compared with vehicle alone plus electrical stimulation. The text has this: FIG. 3C presents data from wild-type mice treated with chelerythrine prior to sham treatment or electrical stimulation followed by the ischemia/reperfusion procedure. Chelerythrine is a relatively selective general protein kinase C(PKC) inhibitor. Most previously described forms of preconditioning or postconditioning require PKC activation in cardiomyocytes. Typically this is indicative of activation and/or repression of specific PKC isoforms in the hearts. Infarct size as a percentage of risk region was assessed and is indicated. The hatched bar presents data from mice treated with chelerythrine and subject to sham treatment (chelerythrine control). The dotted bar presents data from mice treated with vehicle alone and electrically stimulated (vehicle ES). […]
A previously described mouse model of ischemia and reperfusion (I/R) injury in vivo was used (Ren et al. (2004) J. Surg Res. 121(1):120-129; Fan et al (2005)Circulation 111(14):1792-1799; Zhou et al (2007)Cardiovascular Research 75(3) 487-497; and Diwan et a/(2007) J. Clinical Investigation 117(10):2825-2833, herein incorporated by reference in their entirety). […] All mice were continuously monitored by electrocardiography (ECG) (DigiMed Sinus Rhythm Analyzer, Micro-Med Inc), and mice without evidence of ischemia and timely reperfusion were excluded from the studies. […]

Assay [2] concerns murine ischemia/reperfusion model of myocardial infarction. Kind of assay: Topical capsaicin during ischemia or after reperfusion, infarct size. It counts as in vivo, mice. To be noted: p<0.01.
A further assay deals with T1, TRPV1 (Mus musculus, UniProt Q704Y3).
T1 construct: data from wild-type mice topically treated with capsaicin administered to the abdomen; from tissue; host or cells: living mice; skin nociceptors (C-fibers) of the abdomen
T1 sequence (Q704Y3 whole entry): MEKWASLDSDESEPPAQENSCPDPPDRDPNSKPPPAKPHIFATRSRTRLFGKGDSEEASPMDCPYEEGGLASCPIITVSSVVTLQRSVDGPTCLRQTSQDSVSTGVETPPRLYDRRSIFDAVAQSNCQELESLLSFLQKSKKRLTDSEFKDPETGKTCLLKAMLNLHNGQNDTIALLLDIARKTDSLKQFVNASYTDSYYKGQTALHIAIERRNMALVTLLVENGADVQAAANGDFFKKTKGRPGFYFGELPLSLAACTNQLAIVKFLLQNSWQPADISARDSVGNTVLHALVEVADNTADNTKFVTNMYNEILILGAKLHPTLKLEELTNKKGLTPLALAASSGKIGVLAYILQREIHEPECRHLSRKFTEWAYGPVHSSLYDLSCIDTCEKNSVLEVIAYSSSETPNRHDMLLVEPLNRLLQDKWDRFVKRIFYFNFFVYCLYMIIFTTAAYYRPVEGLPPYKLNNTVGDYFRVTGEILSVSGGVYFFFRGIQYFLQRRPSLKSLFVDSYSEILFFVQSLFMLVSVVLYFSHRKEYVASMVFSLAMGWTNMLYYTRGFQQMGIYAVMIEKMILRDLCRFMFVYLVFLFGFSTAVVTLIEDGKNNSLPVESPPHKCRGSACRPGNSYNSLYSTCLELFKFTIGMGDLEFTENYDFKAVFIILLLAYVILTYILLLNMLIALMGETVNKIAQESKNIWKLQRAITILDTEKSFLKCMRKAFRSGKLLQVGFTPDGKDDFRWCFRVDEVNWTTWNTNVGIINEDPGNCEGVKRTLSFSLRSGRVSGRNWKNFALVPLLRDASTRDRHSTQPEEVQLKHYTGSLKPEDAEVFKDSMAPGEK
Put plainly: Topical capsaicin before ischemia/reperfusion in wild-type versus TRPV1 knock-out mice, infarct size. It counts as in vivo. To be noted: capsaicin topically to the abdomen prior to ischemia and reperfusion, compared to TRPVKO mice.

Assay [3] relates to murine ischemia/reperfusion model of myocardial infarction. Kind of assay: Mouse ischemia/reperfusion model, topical capsaicin 15 min prior to coronary occlusion, infarct size. It counts as in vivo, mice.
In another assay the target is T2, TRPV2 (Mus musculus, UniProt Q9WTR1).
T2 construct: mice that received topical probenecid application; from tissue; host or cells: living mice (topical application to skin)
T2 sequence (Q9WTR1 1-756): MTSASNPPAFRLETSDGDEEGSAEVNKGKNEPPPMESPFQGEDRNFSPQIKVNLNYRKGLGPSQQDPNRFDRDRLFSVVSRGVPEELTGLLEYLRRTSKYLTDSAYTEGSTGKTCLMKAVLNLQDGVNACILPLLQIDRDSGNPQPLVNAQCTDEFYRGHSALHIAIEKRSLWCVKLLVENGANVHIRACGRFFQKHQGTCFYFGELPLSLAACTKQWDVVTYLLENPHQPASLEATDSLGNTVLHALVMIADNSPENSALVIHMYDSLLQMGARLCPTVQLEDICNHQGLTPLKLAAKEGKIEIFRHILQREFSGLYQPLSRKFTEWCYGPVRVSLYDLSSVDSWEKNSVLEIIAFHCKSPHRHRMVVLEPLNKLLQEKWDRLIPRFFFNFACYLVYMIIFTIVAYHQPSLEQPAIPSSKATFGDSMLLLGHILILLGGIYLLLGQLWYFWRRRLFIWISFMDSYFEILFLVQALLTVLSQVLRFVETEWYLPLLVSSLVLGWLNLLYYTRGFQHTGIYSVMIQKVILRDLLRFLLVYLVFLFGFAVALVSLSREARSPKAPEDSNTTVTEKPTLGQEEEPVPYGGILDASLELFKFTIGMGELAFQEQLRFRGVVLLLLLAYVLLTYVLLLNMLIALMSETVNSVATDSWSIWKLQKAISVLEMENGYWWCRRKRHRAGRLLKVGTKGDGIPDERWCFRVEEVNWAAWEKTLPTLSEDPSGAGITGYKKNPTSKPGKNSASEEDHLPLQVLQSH
Kind of assay: Topical probenecid in mouse ischemia/reperfusion model, infarct size. In kind it is in vivo, mice. The note with it: topical probenecid application versus control animals; p<0.07.
Text: FIG. 11 presents a graph of infarct size as a percent of risk area in mice that received topical probenecid application (empty bars) or sham treatments (hatched bars).
as §1, §2

Another assay concerns β-adrenergic receptor. Also on record: species or system mice. The note with it: mouse, in vivo.

SMILES strings stand for the structures. Entries after “also recorded” stand apart in the source; their conditions may differ.

Text for TRPV1: Infarct size as a percent of risk region is presented on the y-axis. The first bar presents data from wild-type mice topically treated with capsaicin administered to the abdomen prior to surgical induction of ischemia and reperfusion (WT, Capsaicin, hatched bar). The second bar presents data from TRPV 1 knockout mice topically treated with capsaicin administered to the abdomen prior to surgical induction of ischemia and reperfusion (TRPVKO, Capsaicin, dotted bar). The third bar presents data from TRPV 1 knockout mice subjected to sham treatment prior to surgical induction of ischemia and reperfusion (TRPVKO No capsaicin, empty bar).
Protocol for β-adrenergic receptor: The mice then underwent either sham treatment or electrical stimulation (ES) followed by the ischemia/reperfusion procedure.
A lateral thoracotomy (1.5 cm incision between the second and third ribs was performed to provide exposure of the left anterior descending coronary artery (LAD). Vascular bundles in the vicinity were coagulated using a microcoagulator (Medical Industries Inc, St. Petersburg Fla.). An 8-O nylon suture was placed around the LAD 2-3 mm from the tip of the left auricle and a piece of soft silicon tubing (0.64 mm ID, 1.19 mm OD) was placed over the artery. Coronary occlusion was achieved by tightening and tying the suture. Coronary occlusion was for 45 minutes, unless indicated otherwise. At the end of the occlusion, the suture was untied and left in place. Ischemia was confirmed by visual observation of cyanosis and by continuous ECG monitoring (QRS complex widening, T wave inversion and ST segment changes); reperfusion was confirmed by reversal of these effects. […]

As for `CCN(CC)CC(=O)Nc1c(C)cccc1C` [lidocaine], the “infarct size as a percent of risk region” value in assay [1] is recorded as “no significant cardioprotection relative to controls; also recorded: significantly higher percentage of risk region”. Consider `COc1ccc2c(c[n+](C)c3c4cc5c(cc4ccc23)OCO5)c1OC` [chelerythrine], for which the “Infarct size as a percentage of risk region” value in the assay on protein kinase C(PKC) is on record as “reduced inhibition of ischemia-related tissue damage”.

With `COc1cc(CNC(=O)CCCC/C=C/C(C)C)ccc1O` [capsaicin, (6E)-N-[(4-Hydroxy-3-methoxyphenyl)methyl]-8-methyl-6-nonenamide], the “infarct size as a percent of risk area” value in assay [2] (topical capsaicin application after reperfusion (postCON) versus sham) and in assay [2] (topical capsaicin application during ischemia (conditioning) versus sham) was “significantly reduces infarct size” throughout. The “infarct size as a percent of risk region” value at TRPV1 is “reduced myocardial infarct size”. The “reduction of infarct size” value in assay [3] (remote pre-conditioning, stimulus given 15 minutes prior to the ischemia, 45 min coronary occlusion, versus sham, n=6) is listed as 85%. Also, the “Infarct size as a percent of the risk region” value in assay [3] (remote pre-treatment prior to ischemia/reperfusion versus sham, P<0.01) is recorded as “substantial reduction in infarct size”.

For the compound `CCCN(CCC)S(=O)(=O)c1ccc(C(=O)O)cc1` [probenecid], the “infarct size as a percent of risk region” value at TRPV2 is “significantly reduced”. Consider `CC(C)NCC(O)COc1cccc2ccccc12` (stereo not drawn) [propanolol], for which the “Infarct size as a percentage of risk region” value in the assay on β-adrenergic receptor is reported as “significantly higher”.
